# Experimental data reported in PMC6274539, “Photoactivatable Caged Prodrugs of VEGFR-2 Kinase Inhibitors” (Molecules, 2016).
# What was measured:
# [1] = molecular target: IR-HIS (Homo sapiens, UniProt P06213); assay: kinase profiling, radioactive filter binding assay; type: biochemical; conditions: 0.1 µM compound, assay duplicates; read-out: residual activity of IR-HIS, mean percentage activity
# Outline: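 Each substance, at 0.1 µM in DMSO, was screened by a 33P-ATP radioactive filter binding assay.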
# [2] = molecular target: T1, VEGFR-2 (Homo sapiens, UniProt P35968); assay: radiometric 33PanQinase VEGFR-2 kinase assay (ProQinase); type: biochemical; conditions: 10 semi-log concentrations, single samples, 1% DMSO
# T1 construct: determined using VEGFR-2 protein kinase by a radiometric ^33PanQinase® assay; purchased ProQinase (Freiburg, Germany)
# Method: As predicted by molecular modeling, insertion of the protecting group DMNB should diminish the inhibitory activity both of the maleimide 1 and the carbazole 3. […] The IC50 values towards VEGFR-2 were determined (Table 1).
# The VEGFR-2 IC50 profile for 1, 3, 4 and 5 was determined using VEGFR-2 protein kinase by a radiometric ^33PanQinase® assay. […] Prior to testing, the compounds were dissolved to prepare 1 × 10^−2 M stock solutions in 100% DMSO. The final DMSO concentration in the reaction cocktails was 1% in all cases. Analyses were performed by ProQinase (Freiburg, Germany).
# [3] = molecular target: PLK1 (Okadaic Acid) (Homo sapiens, UniProt P53350); assay: kinase profiling, radioactive filter binding assay; type: biochemical; conditions: 0.1 µM compound, assay duplicates; read-out: residual activity of PLK1 (Okadaic Acid), mean percentage activity
# Method: (§1) To compare the active inhibitors 1 and 3, a selectivity profile over 79 kinases was recorded. The residual kinase activities are presented as a heatmap (Figure 6, for raw data see Supplementary Table S1).
# (§2) Compounds 1 and 3 were screened against 79 kinases. The used method was a radioactive filter binding assay using ^33P ATP, for details see references. The substances were dissolved in DMSO at tested concentration of 0.1 µM. The mean percentage residual kinase activity and standard deviations of assay duplicates were determined. Analyses were performed by the International Center for Kinase Profiling at the University of Dundee, UK.
# [4] = molecular target: SmMLCK (Homo sapiens, UniProt Q15746); assay: kinase profiling, radioactive filter binding assay; type: biochemical; conditions: 0.1 µM compound, assay duplicates; read-out: residual activity of SmMLCK, mean percentage activity
# Method: as §1, §2
# [5] = UV stability at 365 nm in DMSO (HPLC, LC-MS); conditions: 1 mM in DMSO, 5.4 W, up to 10 min
# Method: HPLC and LC-MS analysis were used for content determination.
# Aliquots were diluted 1:10 with methanol and analyzed by HPLC.
# [6] = test system: PC-3 cells; assay: cellular uptake by fluorescence microscopy (cell staining); type: cell-based; conditions: live PC-3 cells, 10 µM, 30 min, autofluorescence
# Method: Next, we investigated the cellular bioavailability of the caged prodrugs. For this purpose, we used the autofluorescence of the carbazole 3 and its caged derivative 5. The emission spectra of both compounds are shown in the Supplementary Figure S6. The fluorescence microscopy was used to explore the uptake of the compounds into the cells. Live PC-3 cells were stained with 10 µM solutions of 3 or 5, and then fixed with formalin. Subsequently, the cell nuclei were counterstained with 1 µg/mL DAPI.
# PC-3 cells were stained with the carbazole 3 and its caged derivative 5. For this purpose, the cells were seeded to give 15,000 cells in 50 µL per well into 96-well half area microplate (Ref.: 675986, Greiner bio-one, Kremsmünster, Austria). The plate was incubated for 48 h at 37 °C in a humidified atmosphere with 5% CO2. Compounds 3 and 5 were dissolved in DMEM:Hams F12 (1:1) medium with 5% FCS and added to the cells to give the endconcentration of 10 µM, respectively. The cells were incubated with the compounds for 30 min at 37 °C. After that, the cells were washed twice with PBS and fixed with 3.3% formalin for 15 min. […] After 30 min incubation at 37 °C, the cells were washed with PBS and the fluorescence images were taken at the ImageXpress® Micro XL (Molecular Devices, Sunnyvale CA, USA). […]
# T1 sequence (P35968 20-1356): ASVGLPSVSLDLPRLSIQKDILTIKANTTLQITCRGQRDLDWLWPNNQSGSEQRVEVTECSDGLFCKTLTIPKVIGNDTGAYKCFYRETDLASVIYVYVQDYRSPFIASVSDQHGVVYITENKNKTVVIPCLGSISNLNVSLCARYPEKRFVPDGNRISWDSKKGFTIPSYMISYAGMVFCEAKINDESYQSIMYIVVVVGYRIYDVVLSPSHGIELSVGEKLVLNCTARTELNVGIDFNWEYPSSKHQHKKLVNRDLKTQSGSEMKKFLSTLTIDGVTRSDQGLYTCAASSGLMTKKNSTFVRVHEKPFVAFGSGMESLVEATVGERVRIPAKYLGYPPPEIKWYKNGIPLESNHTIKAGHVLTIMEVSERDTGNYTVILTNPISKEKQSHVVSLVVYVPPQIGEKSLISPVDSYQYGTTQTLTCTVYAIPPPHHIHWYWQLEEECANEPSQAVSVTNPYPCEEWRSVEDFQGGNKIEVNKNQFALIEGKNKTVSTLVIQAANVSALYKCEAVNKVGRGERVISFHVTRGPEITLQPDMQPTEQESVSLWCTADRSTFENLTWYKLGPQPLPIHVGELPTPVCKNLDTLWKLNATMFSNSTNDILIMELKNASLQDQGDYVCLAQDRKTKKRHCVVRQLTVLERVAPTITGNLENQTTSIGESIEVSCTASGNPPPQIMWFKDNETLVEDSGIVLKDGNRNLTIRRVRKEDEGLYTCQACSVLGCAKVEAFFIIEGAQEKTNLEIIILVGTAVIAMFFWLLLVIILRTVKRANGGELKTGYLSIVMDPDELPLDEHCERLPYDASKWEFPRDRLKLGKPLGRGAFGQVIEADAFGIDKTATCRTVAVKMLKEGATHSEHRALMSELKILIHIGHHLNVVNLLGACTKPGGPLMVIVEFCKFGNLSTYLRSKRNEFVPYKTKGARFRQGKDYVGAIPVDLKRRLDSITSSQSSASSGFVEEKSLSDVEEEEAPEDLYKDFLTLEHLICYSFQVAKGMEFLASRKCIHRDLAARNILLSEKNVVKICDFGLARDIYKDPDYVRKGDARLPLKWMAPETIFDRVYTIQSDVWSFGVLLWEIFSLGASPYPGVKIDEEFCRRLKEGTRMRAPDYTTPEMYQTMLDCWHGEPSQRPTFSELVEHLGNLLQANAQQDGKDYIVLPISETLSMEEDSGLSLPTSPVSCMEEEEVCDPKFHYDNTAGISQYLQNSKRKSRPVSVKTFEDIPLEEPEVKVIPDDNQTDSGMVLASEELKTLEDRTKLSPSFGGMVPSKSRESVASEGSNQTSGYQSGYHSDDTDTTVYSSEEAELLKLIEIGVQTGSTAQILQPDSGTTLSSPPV
# Sequence of PLK1 (Okadaic Acid) (P53350 whole entry): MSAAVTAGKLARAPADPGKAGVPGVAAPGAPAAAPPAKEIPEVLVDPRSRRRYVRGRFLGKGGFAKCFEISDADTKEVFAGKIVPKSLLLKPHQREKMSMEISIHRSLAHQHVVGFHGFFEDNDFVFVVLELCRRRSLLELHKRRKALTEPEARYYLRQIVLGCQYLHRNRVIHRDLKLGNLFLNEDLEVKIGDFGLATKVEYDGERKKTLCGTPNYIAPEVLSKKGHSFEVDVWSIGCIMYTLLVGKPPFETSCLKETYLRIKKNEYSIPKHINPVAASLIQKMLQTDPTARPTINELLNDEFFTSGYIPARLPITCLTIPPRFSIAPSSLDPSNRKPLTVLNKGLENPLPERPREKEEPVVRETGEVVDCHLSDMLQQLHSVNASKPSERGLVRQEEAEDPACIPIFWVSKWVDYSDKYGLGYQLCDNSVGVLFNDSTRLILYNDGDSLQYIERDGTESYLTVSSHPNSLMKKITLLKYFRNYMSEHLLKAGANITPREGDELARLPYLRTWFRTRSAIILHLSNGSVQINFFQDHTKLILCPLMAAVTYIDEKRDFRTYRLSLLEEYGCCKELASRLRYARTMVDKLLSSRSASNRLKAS
# Sequence of SmMLCK (Q15746 923-1914): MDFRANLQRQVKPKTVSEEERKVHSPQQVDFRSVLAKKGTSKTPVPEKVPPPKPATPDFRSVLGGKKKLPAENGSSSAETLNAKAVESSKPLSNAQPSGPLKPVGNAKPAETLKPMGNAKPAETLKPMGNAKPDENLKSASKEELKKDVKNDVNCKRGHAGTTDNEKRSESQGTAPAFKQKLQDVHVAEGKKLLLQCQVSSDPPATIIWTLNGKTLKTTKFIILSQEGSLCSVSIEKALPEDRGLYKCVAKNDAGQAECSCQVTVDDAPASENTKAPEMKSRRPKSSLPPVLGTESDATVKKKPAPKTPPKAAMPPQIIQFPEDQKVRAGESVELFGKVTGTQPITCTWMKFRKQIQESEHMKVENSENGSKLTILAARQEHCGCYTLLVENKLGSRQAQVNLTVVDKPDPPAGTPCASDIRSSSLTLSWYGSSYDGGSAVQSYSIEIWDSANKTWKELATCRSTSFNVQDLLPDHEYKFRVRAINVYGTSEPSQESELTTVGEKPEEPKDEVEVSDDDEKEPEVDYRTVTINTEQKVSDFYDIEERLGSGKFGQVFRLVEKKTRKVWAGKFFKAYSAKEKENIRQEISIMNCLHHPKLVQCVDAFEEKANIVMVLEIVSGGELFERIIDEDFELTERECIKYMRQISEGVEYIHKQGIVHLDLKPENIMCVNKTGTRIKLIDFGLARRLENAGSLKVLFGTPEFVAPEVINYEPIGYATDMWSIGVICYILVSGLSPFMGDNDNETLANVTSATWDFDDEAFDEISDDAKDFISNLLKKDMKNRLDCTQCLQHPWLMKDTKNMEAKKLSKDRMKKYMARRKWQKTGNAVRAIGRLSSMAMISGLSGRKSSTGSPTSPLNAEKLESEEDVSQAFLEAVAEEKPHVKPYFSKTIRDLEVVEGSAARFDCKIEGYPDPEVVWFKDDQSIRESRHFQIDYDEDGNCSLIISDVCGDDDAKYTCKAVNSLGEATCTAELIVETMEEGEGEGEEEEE
# Sequence of IR-HIS (P06213 28-1382): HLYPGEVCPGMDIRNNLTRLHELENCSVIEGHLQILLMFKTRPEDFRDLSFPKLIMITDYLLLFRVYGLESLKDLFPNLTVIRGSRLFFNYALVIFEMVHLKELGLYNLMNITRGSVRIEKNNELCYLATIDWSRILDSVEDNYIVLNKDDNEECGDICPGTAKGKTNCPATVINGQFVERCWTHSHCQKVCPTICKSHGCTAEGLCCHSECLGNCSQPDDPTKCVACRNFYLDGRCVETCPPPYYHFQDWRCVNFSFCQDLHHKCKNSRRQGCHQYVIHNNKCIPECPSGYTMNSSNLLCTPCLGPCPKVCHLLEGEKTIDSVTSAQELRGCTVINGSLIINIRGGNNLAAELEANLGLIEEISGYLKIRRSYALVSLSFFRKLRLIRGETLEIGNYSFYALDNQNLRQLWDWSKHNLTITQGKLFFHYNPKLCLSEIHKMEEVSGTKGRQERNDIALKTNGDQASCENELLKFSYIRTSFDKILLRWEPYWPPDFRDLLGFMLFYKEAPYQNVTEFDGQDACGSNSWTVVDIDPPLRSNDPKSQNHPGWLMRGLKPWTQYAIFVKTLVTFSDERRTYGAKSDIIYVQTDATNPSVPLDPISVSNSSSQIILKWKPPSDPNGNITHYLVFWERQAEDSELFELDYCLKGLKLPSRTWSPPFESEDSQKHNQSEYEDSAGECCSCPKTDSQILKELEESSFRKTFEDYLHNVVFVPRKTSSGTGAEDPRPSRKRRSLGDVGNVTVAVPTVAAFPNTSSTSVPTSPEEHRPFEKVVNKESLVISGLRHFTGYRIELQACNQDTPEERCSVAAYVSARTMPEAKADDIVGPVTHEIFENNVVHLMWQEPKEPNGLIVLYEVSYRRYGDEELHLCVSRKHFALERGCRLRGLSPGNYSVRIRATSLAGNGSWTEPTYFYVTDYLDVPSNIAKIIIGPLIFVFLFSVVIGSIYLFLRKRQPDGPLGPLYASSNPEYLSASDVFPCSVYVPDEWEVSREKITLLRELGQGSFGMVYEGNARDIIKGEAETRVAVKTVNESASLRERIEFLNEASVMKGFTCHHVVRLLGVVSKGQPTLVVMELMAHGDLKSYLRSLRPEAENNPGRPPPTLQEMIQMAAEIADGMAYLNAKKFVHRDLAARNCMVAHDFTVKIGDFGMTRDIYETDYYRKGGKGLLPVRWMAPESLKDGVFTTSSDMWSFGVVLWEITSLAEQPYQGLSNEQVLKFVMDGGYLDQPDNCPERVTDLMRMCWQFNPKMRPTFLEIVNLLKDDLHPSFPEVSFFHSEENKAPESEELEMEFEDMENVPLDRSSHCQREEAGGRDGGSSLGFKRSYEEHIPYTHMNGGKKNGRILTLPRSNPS
SMILES,remaining activity at 0.1 µM [1] [%],IC50 [2] [nM],remaining activity at 0.1 µM [3] [%],remaining activity at 0.1 µM [4] [%],melting point [°C],UV stability under irradiation at 365 nm [5],cellular uptake [6]
"COc1cc2c3c(c4c5ccccc5[nH]c4c2c(OC)c1OC)C(=O)NC3=O [Compound 3, 5,6,7-Trimethoxybenzo[a]pyrrolo[3,4-c]carbazole-1,3(2H,8H)-dione]",88,152,83,30,275,quite stable,"taken up into the cells, but not within the cell nuclei"
"COc1cc(C2=C(c3c[nH]c4ccccc34)C(=O)NC2=O)cc(OC)c1OC [Compound 1, 3-(1H-Indol-3-yl)-4-(3,4,5-trimethoxyphenyl)-1H-pyrrole-2,5-dione]",,5,85,60,,,
